In patent US10577349B2 (Sanford Burnham Prebys Medical Discovery Institute, priority 2015, dated 2020):

How the values were obtained:
A375 = test: 48 h Cytotoxicity A375; assay type: cell-based; details: Homo sapiens, A-375
[1] = system: UACC903 (BRAF mutant) cell line; test: Reverse phase protein array analysis (RPPA), UACC903; assay type: cell-based, human; details: UACC903, 1 μM, 24 h
Description: UACC903 and WM1346 cells were treated with DMSO (controls) or 1 μM Compound 38 for 24 h in triplicate. Cells were lysed with lysis buffer (1% Triton X-100, 50 mM HEPES, pH 7.4, 150 mM NaCl, 1.5 mM MgCl2, 1 mM EGTA, 100 mM NaF, 10 mM Na pyrophosphate, 1 mM Na3VO4, 10% glycerol, with freshly added protease and phosphatase inhibitors) and centrifuged at 13,000 g for 20 minutes. Denatured protein lysates containing the same amount of protein were then subjected to RPPA analysis at the RPPA Core Facility, Md. Anderson Cancer Center, as previously described (Tibes. R., et al. Reverse phase protein array: validation of a novel proteomic technology and utility for analysis of primary leukemia specimens and hematopoietic stem cells. Molecular cancer therapeutics 5, 2512-2521 (2006)),
A reverse phase protein array (RPPA) analysis of BRAF- and NRAS-mutant melanomas was performed to identify protein networks affected by Compound 38 (Table 4).

[2] = system: Nras^Q61K/Ink4a^−/− melanoma tumors; test: Inducible Nras^Q61K/Ink4a^−/− genetic melanoma model; assay type: in vivo, mice; details: 0.5 mg/kg intraperitoneal twice a week from week 11; compared with control nontreated group
Description: In vivo, Compound 38 was evaluated using an inducible Nras^Q61K/Ink4a^−/− genetic model in which melanoma tumors emerge within 16 to 20 weeks (FIG. 20). Administration of Compound 38 only, starting 11 weeks after genetic inactivation of Ink4a and induction of […] (about 10-14 days prior to tumor appearance), delayed tumor onset (from 20-26 weeks), and reduced tumor incidence, by 50%, compared with the control nontreated group. Mice of the Nras^Q61K:Ink4a^−/− genotype or WT mice (38-40 mice for each genotype) were administered vehicle or Compound 38 at 0.5 mg/kg by intraperitoneal injection twice a week starting at week 11 after Nras^Q61K activation and Ink4a inactivation. Tumor development was monitored twice per week. Latency and frequency of melanoma development over the 21-week treatment period (weeks 11-32) are shown.

eIF4F complex = target: T1, eIF4F complex (Homo sapiens, UniProt Q04637); test: m7GTP pull-down assay, BRAFi-sensitive and -resistant melanoma cells; assay type: cell-based
T1 construct: PLX4032), or Compound 38; endogenous in cells; host or cells: A375, A375R, Lu1205R, WM793R melanoma cells
Description: As previously described (Dowling R J, et al. mTORC1-mediated cell proliferation, but not cell growth, controlled by the 4E-BPs. Science. 2010; 328:1172-6), cells growing in 100 mm plates were washed (cold PBS), collected, and lysed in 50 mM MOPS/KOH (7.4), 100 mM NaCl, 50 mM NaF, 2 mM EDTA, 2 mM EGTA, 1% NP40, 1% Na-DOC, 7 mM β-mercaptoethanol, protease inhibitors and phosphatase inhibitor cocktail (Roche). Lysates were incubated with m7-GDP-agarose beads (Jena Bioscience) for 20 minutes, washed 4 times with the washing buffer containing 50 mM MOPS/KOH (7.4), 100 mM NaCl, 50 mM NaF, 0.5 mM EDTA, 0.5 mM EGTA, 7 mM (3-mercaptoethanol, 0.5 mM PMSF, 1 mM Na3VO4 and 0.1 mM GTP, and bound proteins were eluted by boiling the beads in loading buffer. m7-GDP-agarose pulled down material was analyzed by Western blot analysis.
As levels of the eIF4F complex inversely correlate with the effectiveness of various cancer therapies, the integrity of the eIF4F complex after treating melanoma cells with a combination of BRAFi vemurafenib (PLX4032) and Compound 38 was assessed. […] A375 and A375R (PLX4032-resistant) cells were treated with vehicle (DMSO), a BRAFi (vemurafenib; PLX4032), or Compound 38 at the indicated doses for 24 hours. Cell lysates ([…]) were subjected to m^7GTP pull-down. Amounts of the indicated proteins in input (5%) or pull-down (50%) samples were determined by Western blotting; 3-actin served as a loading control (input) and to exclude contamination (m^7GTP pull-down).

[3] = Hepatic Microsome Stability Mouse; assay type: in vitro ADME
[4] = target: EmCV Cap-independent translation; test: In vitro translation assay, FF-EmCV-Ren construct, cap-independent (Ren luciferase); assay type: biochemical, rabbit reticulocyte lysates
In short: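 Compounds were tested on bicistronic firefly/Renilla RNA in rabbit reticulocyte lysate, with 2 h translation at 30° C after 1 h compound pre-incubation. To rule out luciferase interference, compounds were also added after translation was complete.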

O=C(/C=C/c1cncc(F)c1)c1c(-c2ccccc2)c2cc(Cl)ccc2[nH]c1=O [Compound 38, 6-Chloro-3-[3-(5-fluoro-pyridin-3-yl)-acryloyl]-4-phenyl-1H-quinolin-2-one]
IC50 (A375): < 2000 nM
Ratio [Compound 38/DMSO] A-Raf [1]: 0.91
Ratio [Compound 38/DMSO] AR [1]: 0.92
Ratio [Compound 38/DMSO] ATM [1]: 0.79
Ratio [Compound 38/DMSO] ATR [1]: 0.84
Ratio [Compound 38/DMSO] BRCA2 [1]: 0.96
Ratio [Compound 38/DMSO] C-Raf [1]: 0.92
Ratio [Compound 38/DMSO] Chk1 [1]: 0.89
Ratio [Compound 38/DMSO] Ets-1 [1]: 0.92
Ratio [Compound 38/DMSO] GCN5L2 [1]: 0.88
Ratio [Compound 38/DMSO] INPP4b [1]: 0.93
Ratio [Compound 38/DMSO] MSH6 [1]: 0.76
Ratio [Compound 38/DMSO] PI3K-p85 [1]: 0.93
Ratio [Compound 38/DMSO] PI3K-p110-alpha [1]: 0.94
Ratio [Compound 38/DMSO] Rad51 [1]: 0.93
Ratio [Compound 38/DMSO] Raptor [1]: 0.86
Ratio [Compound 38/DMSO] Rictor_pT1135 [1]: 0.84
Ratio [Compound 38/DMSO] S6_pS235_S236 [1]: 0.63
Ratio [Compound 38/DMSO] S6_pS240_S244 [1]: 0.61
Ratio [Compound 38/DMSO] Stat5a [1]: 0.85
Ratio [Compound 38/DMSO] Tuberin [1]: 0.62
Ratio [Compound 38/DMSO] YB1 [1]: 0.77
Ratio [Compound 38/DMSO] c-Kit [1]: 0.86
Ratio [Compound 38/DMSO] c-Myc [1]: 0.72
Ratio [Compound 38/DMSO] mTOR [1]: 0.90
Ratio [Compound 38/DMSO] mTOR_pS2448 [1]: 0.72
Ratio [Compound 38/DMSO] p70-S6K_pT389 [1]: 0.82
reduced tumor incidence [2]: 50%
tumor onset, delayed (from - to) [2]: 20-26 weeks
dissociation of eIF4G1 from eIF4E in BRAFi-resistant cells (eIF4F complex; A375R, Lu1205R and WM793R cells): significantly promoted a dose dependent dissociation of eIF4G1 from eIF4E
eIF4G1 association with eIF4E (eIF4F complex; A375 and A375R, 24 hours): more robust effect
amount of eIF4G1 bound to eIF4E, Compound 38/BRAFi combination (eIF4F complex; combination with BRAFi PLX4032, not seen following BRAFi treatment alone): decreased the amount of eIF4G1 bound to eIF4E
Hepatic Microsome Stability (% remaining at 1 Hr) Mouse [3]: 38.69 % remaining
Hepatic Microsome Stability (% remaining at 1 Hr) Mouse (no NADPH) ([3]; no NADPH): 53.97 % remaining
IC50 [4]: 2000 to 10000 nM
